pIC50: −log10 of the molar value.

By pIC50 is commonly meant the IC50 on a negative log10 scale, so that one unit is a factor of ten.

The test system of one assay is protein target. The experiment in a line: Reversibility of Binding (compound in solution before and after perturbation of the target, HPLC-MS/MS). The following applies: for Compound in solution in the denatured or digested state?: after denaturation with 5 M guanidine hydrochloride and digestion with trypsin; for Compound in solution in the native state?: protein target at a higher concentration than the compound, before perturbation. The method, then:
The following approach was developed to differentiate compounds that form irreversible bonds with their targets, such as acrylamide compounds, from compound that bind reversibly. […] The reactions were then treated with perturbations including both denaturation with 5 M guanidine hydrochloride and digestion with trypsin, disrupting proper folding of the target. […] The concentration of compound in solution was assessed both preceding and following perturbation using high performance liquid chromatography (HPLC) coupled to tandem mass spectrometry.

A further assay concerns the target human recombinant Btk (Homo sapiens (Human), UniProt Q06187). The experiment in a line: biochemical.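 Note: Read-out is the quantity of phosphorylated substrate product formed, and IC50 reflects inhibition of Btk kinase activity.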

Chain of human recombinant Btk (Q06187 whole entry): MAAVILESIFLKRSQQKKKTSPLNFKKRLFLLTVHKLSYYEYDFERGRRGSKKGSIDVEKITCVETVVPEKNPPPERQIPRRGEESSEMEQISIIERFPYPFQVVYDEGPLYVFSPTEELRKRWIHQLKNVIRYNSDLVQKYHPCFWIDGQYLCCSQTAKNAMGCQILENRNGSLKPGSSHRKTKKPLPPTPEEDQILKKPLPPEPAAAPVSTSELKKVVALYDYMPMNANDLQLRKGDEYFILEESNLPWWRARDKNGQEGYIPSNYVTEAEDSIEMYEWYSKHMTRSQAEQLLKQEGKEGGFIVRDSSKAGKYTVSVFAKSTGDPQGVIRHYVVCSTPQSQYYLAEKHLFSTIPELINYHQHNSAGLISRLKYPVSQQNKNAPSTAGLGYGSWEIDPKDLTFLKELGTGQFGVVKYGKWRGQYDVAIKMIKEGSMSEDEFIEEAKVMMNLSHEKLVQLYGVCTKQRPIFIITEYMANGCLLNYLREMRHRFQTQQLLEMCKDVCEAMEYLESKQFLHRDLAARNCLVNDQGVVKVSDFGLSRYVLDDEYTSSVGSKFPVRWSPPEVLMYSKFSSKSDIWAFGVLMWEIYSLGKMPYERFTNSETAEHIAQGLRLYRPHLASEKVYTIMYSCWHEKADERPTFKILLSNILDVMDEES
Experimental for human recombinant Btk: A Caliper-based kinase assay (Caliper Life Sciences, Hopkinton, Mass.) was used to measure inhibition of Btk kinase activity of a compound of Formula (IA), (I′) or (I). […] The reaction was then terminated with EDTA, final concentration 20 mM and the phosphorylated reaction product was quantified on a Caliper Desktop Profiler (Caliper LabChip 3000). […] This value is presented as the IC50.

As to `N#CC(=CC1CC1)C(=O)N1CCC[C@@H](n2cc(-c3ccc(Oc4ccccc4)cc3)c3c(N)ncnc32)C1` [Example 27, (R)-2-(3-(4-amino-5-(4-phenoxyphenyl)-7H-pyrrolo[2,3-d]pyrimidin-7-yl)piperidine-1-carbonyl)-3-cyclopropylacrylonitrile], in the assay with protein target, the “Compound in solution in the denatured or digested state?” value is “yes”; the “Compound in solution in the native state?” value was “depleted in the folded state and no”.
On to `C=CC(=O)N1CCC[C@@H](n2nc(-c3ccc(Oc4ccccc4)cc3)c3c(N)ncnc32)C1` [acrylamide-containing compound 1, reference compound], for which, in the assay with protein target, the “Compound in solution in the denatured or digested state?” value is “depleted from solution in both the native and perturbed state”; the “Compound in solution in the native state?” value is “depleted from solution in both the native and perturbed state”.
As for `Cc1cc(Oc2ccccc2)ccc1-c1nn(C[C@H]2CCCN2C(=O)C(C#N)=CC2CC2)c2ncnc(N)c12` [Example 69A, (R)-2-(2-((4-amino-3-(2-methyl-4-phenoxyphenyl)-1H-pyrazolo[3,4-d]pyrimidin-1-yl)methyl)pyrrolidine-1-carbonyl)-3-cyclopropylacrylonitrile], the pIC50 at human recombinant Btk was 8.30.
Same read-out and setting: for `N#CC(=CC1CC1)C(=O)N1CCC[C@H]1Cn1nc(-c2ccc(Oc3cc(F)cc(F)c3)cc2)c2c(N)ncnc21` [Example 25B, (S)-2-(2-((4-amino-3-(4-(3,5-difluorophenoxy)phenyl)-1H-pyrazolo[3,4-d]pyrimidin-1-yl)methyl)pyrrolidine-1-carbonyl)-3-cyclopropylacrylonitrile] the value was 6.85; for `CC(C)C=C(C#N)C(=O)N1CCC[C@H]1Cn1nc(-c2ccc(Oc3cccc(F)c3)cc2F)c2c(N)ncnc21` [Example 73B, (S)-2-(2-((4-amino-3-(2-fluoro-4-(3-fluorophenoxy)phenyl)-1H-pyrazolo[3,4-d]pyrimidin-1-yl)methyl)pyrrolidine-1-carbonyl)-4-methylpent-2-enenitrile], 7.96; for `N#CC(=CC1CC1)C(=O)N1CCC[C@@H]1Cn1nc(-c2ccc(Oc3c(F)cccc3F)cc2)c2c(N)ncnc21` [Example 32A, (R)-2-(2-((4-amino-3-(4-(2,6-difluorophenoxy)phenyl)-1H-pyrazolo[3,4-d]pyrimidin-1-yl)methyl)pyrrolidine-1-carbonyl)-3-cyclopropylacrylonitrile], 8.77.
The same measure, in the same setting: for `CC(C)C=C(C#N)C(=O)N1CCC[C@H]1Cn1nc(-c2ccc(Oc3c(F)cccc3F)cc2)c2c(N)ncnc21` [Example 75B, (S)-2-(2-((4-amino-3-(4-(2,6-difluorophenoxy)phenyl)-1H-pyrazolo[3,4-d]pyrimidin-1-yl)methyl)pyrrolidine-1-carbonyl)-4-methylpent-2-enenitrile] the value was 7.00.

The values are drawn from patent US9090621B2, “Tyrosine kinase inhibitors” (Principia Biopharma Inc., priority 2013, dated 2015).
